73 compounds from PubChem BioAssay AID179 (DTP/NCI, 2004) can be followed below.

The structures appear in SMILES notation. The source made the active and inactive calls.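 How the source made its calls: active means compounds giving half or more protection of infected cells from virus-caused growth loss, again on retest; inactive means the rest.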

In this assay the test system is CEM cells HIV-1 protection, formazan growth assay. Briefly: NCI AIDS Antiviral Assay. The note with it: for IC50: measured here: growth of uninfected CEM cells. In a few lines: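 Protection of CEM cells against HIV-1 was scored from cell growth (soluble formazan) across five concentrations, with parallel uninfected cells. Lack of protection may reflect toxicity.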

One may read the EC50 as the midpoint of the concentration-response curve. Broadly, the IC50 is the point on the concentration scale where inhibition reaches its midpoint. A low value points to greater potency in that assay.

Consider `O=C(O)CCCCSCCCCC(=O)O`, for which the EC50 is above 1070 µM and the IC50 is above 1070 µM.

As to `CC(=O)NC1C(OCc2ccccc2)OC(CO)C(O)C1OCC(=O)N1CCCC1C(=O)N[C@@H](CCC(=O)NCCCCNc1c2ccccc2nc2cccc([N+](=O)[O-])c12)C(N)=O` (some centres undefined), the EC50 is above 100 µM and the half-inhibitory concentration (IC50) worked out at 15.8 µM.

Turning to `CSSc1ccccc1`, the EC50 is above 20 µM and the IC50 turned out to be 7.76 µM.

Consider `C=C(C)[C@@H]1CC=C2[C@H](O)CC(O)C(C)[C@@]2(C)C1` (some centres undefined), for which the EC50 is above 209 µM and the IC50 is 51.3 µM.

As for `C1CN(P(N2CCOCC2)N2CCOCC2)CCO1`, the EC50 was above 871 µM and the IC50 is above 871 µM.

Consider `COC(=O)CC1(C)CCC2(OC(CC(C)=O)C3C(C)(C)CCC[C@@]32C)O1` (some centres undefined), for which the EC50 is above 200 µM and the half-maximal inhibitory concentration (IC50) is 141 µM.

Consider `Cc1nc2cc3[nH]c4ccccc4c(=O)c3cc2s1`, for which the EC50 was above 148 µM and the concentration for half-maximal inhibition (IC50) was above 148 µM.

As for `N#CN=C1C=CC(=C(C#N)C#N)C=C1`, the outcome was inactive.

For `COc1cc2c(cc1OC)C(C#N)(Cc1ccccc1)N(C(=O)c1ccccc1)C=C2` (centres undefined), the outcome was inactive.

Turning to `O=C(Nc1ccccc1)N1CC2(CN1)CNN(C(=O)Nc1ccccc1)C2`, the EC50 was above 182 µM and the IC50 was above 182 µM.

Take `N#CCC(=O)Nn1c(CC#N)nnc1Cc1ccccc1`: the outcome was inactive.

`COC1(CC[C@@H](C)COC2OC(CO)C(O)C(O)C2O)O[C@H]2C[C@H]3[C@@H]4CC=C5C[C@@H](OC6OC(CO)C(OC7OC(C)C(O)C(O)C7O)C(O)C6OC6OC(C)C(O)C(O)C6O)CC[C@]5(C)[C@H]4CC[C@]3(C)[C@H]2[C@@H]1C` (some centres undefined): the EC50 was above 200 µM and the IC50 was found to be 2.57 µM.

Take `C=CCOc1cc(NC(=S)c2sccc2C)ccc1Cl`: the concentration for a half-maximal effect (EC50) was 1.45 µM and the IC50 worked out at 14.5 µM.

On to `COC(=O)C1C(=O)C(C(=O)OC)C2(C)C(C(=O)OC)C(=O)C(C(=O)OC)C12C` (centres undefined), for which the EC50 is above 89.1 µM and the IC50 is 81.3 µM.

As for `CCOC(=O)CCC(NC(=O)c1ccc(OCc2nc3cc(C(F)(F)F)ccc3nc2-c2ccccc2)cc1)C(=O)OCC` (centres undefined), the EC50 is above 200 µM and the half-maximal inhibitory concentration (IC50) was determined as 27.5 µM.

Turning to `CCCCCCCCCCOCCC(=O)O`, the EC50 is above 200 µM and the IC50 was 89.1 µM.

Take `Cc1ccc(NC(=O)/C(C#N)=C/c2ccccc2)c(C)c1`: the EC50 is above 24.5 µM and the IC50 is above 24.5 µM.

On to `CC(=O)c1cccc(NC(=O)C(=O)NNc2n[nH]c(=S)n2N)c1`, for which the EC50 was above 282 µM and the IC50 was determined as 6.76 µM.

Regarding `CSc1n[nH]c(NC(=O)c2ccccc2Cl)n1`, the EC50 was above 132 µM and the 50% inhibitory concentration (IC50) is above 132 µM.

As for `CN(C)CCCNc1ccnc2cc([N+](=O)[O-])ccc12`, the EC50 was above 200 µM and the IC50 came out at 12.9 µM.

On to `C[n+]1c(-c2ccc(/C=N/Nc3ccnc(N/N=C/c4ccc(-c5cn6ccsc6[n+]5C)cc4)n3)cc2)cn2ccsc21`, for which the EC50 is 11.5 µM and the IC50 amounted to 41.7 µM.

With `CC(=O)C(=CC=C(c1ccc(N(C)C)cc1)c1ccc(N(C)C)cc1)C(C)=O`, the EC50 was above 5.37 µM and the half-maximal inhibitory concentration (IC50) was 3.24 µM.

As to `COC1C(=O)CCC2(CO2)C1(O)C1(C)OC1CC=C(C)C` (centres undefined), the EC50 is above 200 µM and the IC50 worked out at 2.88 µM.

On to `CCOP(=O)(OCC)C(Nc1ccc(F)cc1)c1ccccc1` (centres undefined), for which the EC50 is above 200 µM and the IC50 turned out to be 89.1 µM.

As for `Cc1cn(C(=O)NC23CC4CC(CC(C4)C2)C3)c(=O)[nH]c1=O`, the EC50 is above 100 µM and the IC50 turned out to be 51.3 µM.

As to `O=C(Nc1c(NCC(O)C(O)C(O)CO)[nH]c(=O)[nH]c1=O)c1ccc(S(=O)(=O)F)cc1` (centres undefined), the EC50 is above 200 µM and the IC50 turned out to be 117 µM.

On to `C[Si](C)(C)c1ccc(CC2(Cc3ccc([Si](C)(C)C)cc3)CCNC2)cc1`, for which the EC50 is above 5.01 µM and the IC50 is above 5.01 µM.

In the case of `O=Cc1cccc(/C=N/Nc2nnc(N/N=C/c3cccc(C=O)c3)c3ccccc23)c1`, the EC50 is above 200 µM and the IC50 stood at 28.8 µM.

On to `CN(C)c1ccc(C(=O)CCCN2CCC(O)(c3ccc(Cl)cc3)CC2)cc1`, for which the EC50 is above 25.1 µM and the 50% inhibitory concentration (IC50) was above 25.1 µM.

Consider `NC(N)=NCc1ccc2c(c1)OCO2`, for which the EC50 was above 200 µM and the 50% inhibitory concentration (IC50) amounted to 166 µM.

As for `CCC1(O)C(=O)OCc2c1cc1n(c2=O)Cc2cc3cc(OC)c(OC)cc3nc2-1` (centres undefined), the EC50 was above 10 µM and the IC50 was 1.29 µM.

`CC(SCCCCCCCCCCCCSC(C)C(=O)O)C(=O)O` (centres undefined): the EC50 was above 79.4 µM and the IC50 is above 79.4 µM.

On to `c1ccc2c(c1)OCOc1ccccc1OCO2`, for which the result was inactive.

Turning to `CCOc1ccc(-n2nc(C(=O)O)cc(Cl)c2=O)cc1`, the EC50 was above 427 µM and the half-maximal inhibitory concentration (IC50) worked out at 18.2 µM.

Consider `O=C(/C=C/c1ccccc1O)c1cccc2ccccc12`, for which the EC50 is 93.3 µM and the IC50 worked out at 95.5 µM.

As to `CC12CCC(=O)N1c1cc(Cl)ccc1N2` (centres undefined), the EC50 is above 115 µM and the IC50 is above 115 µM.

Take `Cc1cc(N(CCC#N)CCC#N)ccc1/C=C/C(=O)Nc1ccccc1Cl`: the EC50 was above 457 µM and the IC50 was above 457 µM.

Take `CC(C)OC(=O)c1ccc(NCC2=CC(=O)C=CC2=O)cc1Cl`: the EC50 is above 200 µM and the 50% inhibitory concentration (IC50) turned out to be 9.33 µM.

`CN1C(=O)C2C(=O)N(Cc3ccccc3)CC(=O)N2c2cccnc21` (centres undefined): the EC50 was above 200 µM and the IC50 was above 200 µM.

In the case of `N#CI1OC(C(F)(F)F)(C(F)(F)F)c2ccccc21`, the EC50 was above 200 µM and the half-maximal inhibitory concentration (IC50) is 9.55 µM.

Consider `C/C(CCn1[nH]c(=O)ccc1=O)=N\OCCCc1ccccc1`, for which the EC50 was above 417 µM and the half-maximal inhibitory concentration (IC50) was above 417 µM.

Turning to `Cc1nc2cc(C(=O)NC=O)c3n[nH]nc3c2n1C`, the EC50 was above 200 µM and the 50% inhibitory concentration (IC50) was above 200 µM.

On to `Cc1c2c(n(CCc3ccccc3)c1C)N(C)N=C(C#N)S2(=O)=O`, for which the EC50 is above 200 µM and the IC50 was above 200 µM.

Take `Cc1ccc(S(=O)(=O)N(C)C)cc1NC1=NCCO1`: the EC50 was above 200 µM and the half-inhibitory concentration (IC50) is above 200 µM.

Consider `CCS[C@]1(C)C(=O)c2ccccc2C(=O)[C@@]1(C)O`, for which the outcome was inactive.

For the compound `Cc1ccc(C(=O)C(c2nc3n(c2O)C(=N)N=N3)c2nc3n(c2O)C(=N)N=N3)cc1` (centres undefined), the EC50 is above 12.9 µM and the IC50 is above 12.9 µM.

Take `CC(=O)NC(CC(C)C)C(=O)NC(Cc1ccccc1)C(=S)N1CCCC1` (centres undefined): the EC50 is above 174 µM and the IC50 was above 174 µM.

Take `O=C(/C=C/c1ccccc1F)c1ccccc1`: the EC50 was above 22.9 µM and the concentration for half-maximal inhibition (IC50) was above 22.9 µM.

`CCOC(OC(C)=O)[C@@H]1C=C[C@H](C)N(c2ccc([N+](=O)[O-])cc2)O1` (some centres undefined): the EC50 is above 40.7 µM and the IC50 turned out to be 2.24 µM.

Take `CC1(C)OC(=O)C(c2ccsc2)C(=O)O1`: the EC50 was above 1100 µM and the IC50 worked out at 589 µM.

Take `CC1CC(=O)c2ccccc2O1` (centres undefined): the EC50 is above 200 µM and the 50% inhibitory concentration (IC50) is above 200 µM.

With `CCOC(=O)c1ncoc1[C@H]1COC(C)(C)O1`, the result was inactive.

Turning to `O=C1CN(CCc2ccccc2)CC(=O)N2C(c3ccccc3)CCCN12` (centres undefined), the outcome was inactive.

In the case of `Oc1ccccc1-c1nnc2n1N=C(c1ccc(-c3ccccc3)cc1)CS2`, the EC50 is above 200 µM and the IC50 amounted to 15.5 µM.

In the case of `COP1(=O)Oc2ccccc2C(=O)C(C(F)(F)F)(C(F)(F)F)O1` (centres undefined), the EC50 is above 692 µM and the IC50 came out at 295 µM.

As for `COc1c(OC2OC(CO)C(O)C(O)C2O)cc2c(c1OC)-c1ccc(OC)c(=O)cc1[C@@H](NC(C)=O)CC2` (some centres undefined), the result was inactive.

Take `CC1CCCN2C(=O)CN(CCc3ccccc3)CC(=O)N12` (centres undefined): the outcome was inactive.

With `CCOC(=O)/C(=C/c1cccc(Cl)c1)N(CC)CC`, the EC50 is above 91.2 µM and the half-maximal inhibitory concentration (IC50) was above 91.2 µM.

In the case of `COC(=O)C(=C/c1ccc(OC)cc1)/C(C(=O)O)=C(/C)c1ccccc1`, the EC50 was above 708 µM.

For the compound `COP(=O)(OC)C(NC=O)P(=O)(OC)OC`, the EC50 is above 200 µM and the IC50 was above 200 µM.

For `CCOC(=O)CC(O)(c1ccccc1)c1ccccc1`, the EC50 was above 10 µM and the IC50 is above 10 µM.

On to `O=C(NC1C=CCC2C(=O)N(c3ccccc3)C(=O)C12)OCc1ccccc1` (centres undefined), for which the result was inactive.

For `COC(=O)[C@H](Cc1ccccc1)NC(=O)NCCN(CCNC(=O)N[C@@H](Cc1ccccc1)C(=O)OC)C(=O)N[C@@H](Cc1ccccc1)C(=O)OC`, the EC50 was above 200 µM and the 50% inhibitory concentration (IC50) turned out to be 33.9 µM.

With `CC1=C(C#N)C2C(=C(C)N1)C(N)=Nc1ccccc12` (centres undefined), the EC50 is above 200 µM and the 50% inhibitory concentration (IC50) is 13.5 µM.

Consider `COCn1cc(C2=C(C)C(=O)C(C)=C(C)C2=O)cn1`, for which the EC50 is above 200 µM and the IC50 stood at 6.03 µM.

For `O=C(NC1=NC2C=CC([N+](=O)[O-])=CC2S1)C(=O)Nn1c(=S)[nH]c2ccccc2c1=O` (centres undefined), the EC50 was above 81.3 µM and the IC50 came out at 74.1 µM.

For the compound `C=CCC1(c2ccccc2)Oc2ccccc2-n2cccc2C1=O` (centres undefined), the EC50 is 7.08 µM and the IC50 was determined as 10.5 µM.

Take `Nc1cccc(N=Nc2c(S(=O)(=O)O)cc3cc(NC(=O)Nc4ccc5c(O)c(N=Nc6cccc(N)c6)c(S(=O)(=O)O)cc5c4)ccc3c2O)c1`: the EC50 was 13.5 µM and the IC50 is above 100 µM.

For the compound `CCCC1=C(OC)C(=O)c2c(C)cc(Cl)nc2C1=O`, the EC50 is above 200 µM and the IC50 turned out to be 4.07 µM.

Consider `CCOC(=O)N1N=C(/C(C)=N/OC)C(C)S1=O` (centres undefined), for which the EC50 was above 200 µM and the concentration for half-maximal inhibition (IC50) turned out to be 148 µM.

In the case of `COC(=O)c1cc(C(CCl)c2cc(C(=O)OC)c(OC)c(Br)c2C)c(C)c(Br)c1OC`, the EC50 was above 200 µM and the concentration for half-maximal inhibition (IC50) was 8.71 µM.

Turning to `CC(C)=NNc1cnnc2ccc([N+](=O)[O-])cc12`, the EC50 is above 200 µM and the IC50 was 70.8 µM.

Consider `Clc1ccc2c(Cl)nc(-c3ccccc3)nc2c1`, for which the outcome was inactive.
